According to patent publication US20140082772A1, “Herbicide-Tolerant Plants” (priority 2010, published 2014):

Tested on: spring-type B. napus cultivar, 45A77
Experiment: not given
Settings: PM-mutant gene-containing spring-type cultivar 45A77; R. Degenhardt et al., Weed Technology 19, 2005, 608; cited from earlier work

| Compound | effect of application on the crop |
| --- | --- |
| COc1nc(C)nc(NC(=O)NS(=O)(=O)c2ccsc2C(=O)O)n1 [thifensulfuron] | reduced canola biomass, herbicide injury symptoms, or delayed maturity |

Tested on: AHAS-inhibitor tolerant WOSR line
Experiment: Plot post-emergence crop tolerance (PHYTOX), Example 3, WOSR
Type: in vivo, Brassica napus
Settings: post-emergence at GS 12/13, 15 DAT, crop GS 14/15, AI rate g/ha: flupyrsulfuron-methyl-sodium 5, thifensulfuron-methyl 15, tritosulfuron 25, tribenuron-methyl 15
Protocol: (§1) Plants of an AHAS-inhibitor tolerant WOSR line and plants of an AHAS-tolerant SOSR line are sown side by side in a plot. A post-emergence treatment of herbicides is applied to the plants by means of fine distributed nozzles at the growth stage GS/BBCH 12/13. There are four replications of each treatment.
(§2) The evaluation for crop-tolerance is assessed as PHYTOX symptom caused by the chemical compounds carried out using a scale from 0 to 100%, compared to the untreated control plants. Here, 0 means no damage and 100 means complete destruction of the plants.

| Compound | PHYTOX % [%] |
| --- | --- |
| COc1nc(NC(=O)NS(=O)(=O)c2ccccc2C(F)(F)F)nc(C(F)(F)F)n1 [Tritosulfuron] | 43 |
| COC(=O)c1ccccc1S(=O)(=O)NC(=O)N(C)c1nc(C)nc(OC)n1 [Tribenuron-methyl] | 17 |
| COC(=O)c1ccc(C(F)(F)F)nc1S(=O)(=O)NC(=O)Nc1nc(OC)cc(OC)n1 [Flupyrsulfuron-methyl-sodium] | 11 |
| COC(=O)c1sccc1S(=O)(=O)NC(=O)Nc1nc(C)nc(OC)n1 [Thifensulfuron-methyl] | 13 |

Tested on: second AHAS-inhibitor susceptible WOSR line
Experiment: Greenhouse post-emergence herbicide crop damage, Example 2, susceptible line
Type: in vivo, Brassica napus
Settings: post-emergence at GS/BBCH 10, assessed 19 DAT
Protocol: (§3) Plants of an AHAS-inhibitor tolerant WOSR line and plants of a second AHAS-inhibitor susceptible WOSR line are sown in 10 cm pots with a sandy loam. Each pot is planted with two plants, the plants are watered from beneath and fertilized according there requirement. The pots are stored side by side in a greenhouse at 12° C. at the emergence phase. The temperature increases to 15-20° C. three weeks after sowing.
(§4) A post-emergence treatment of herbicides is applied to the plants by means of fine distributed nozzles and a water use rate of 200 L/ha at the growth stage GS/BBCH 10. The herbicides are tested at different rates. Twelve cultivar replicates are carried out per rate.
(§5) The evaluation of efficacy is assessed as crop damage caused by the herbicides using a scale from 0 to 100%, compared to the untreated control plants. Here, 0 means no damage and 100 means complete destruction of the plants. The level of efficacy is assessed 19 days after treatment (DAT). The efficacy results are presented as ED50 values.

| Compound | ED50 (crop damage, scale 0 to 100% vs untreated control) [g/ai/ha] |
| --- | --- |
| COc1nc(NC(=O)NS(=O)(=O)c2ccccc2C(F)(F)F)nc(C(F)(F)F)n1 [Tritosulfuron] | 1.76 |
| CCS(=O)(=O)c1nc2ccccn2c1S(=O)(=O)NC(=O)Nc1nc(OC)cc(OC)n1 [Sulfosulfuron] | 0.01 |
| COC(=O)c1ccccc1S(=O)(=O)NC(=O)N(C)c1nc(C)nc(OC)n1 [Tribenuron-methyl] | 0.11 |
| COc1nc(C)nc(NC(=O)NS(=O)(=O)c2ccccc2Cl)n1 [Chlorsulfuron] | 0.04 |
| COc1ncc(F)c2nc(S(=O)(=O)Nc3c(F)cccc3F)nn12 [Florasulam] | 0.28 |
| CCCOc1nn(C(=O)[N-]S(=O)(=O)c2ccccc2C(=O)OC)c(=O)n1C.[Na+] [Propoxycarbazone-sodium] | 0.17 |
| Trisulfuron-methyl [Trisulfuron-methyl 500] | 0.03 |
| COC(=O)c1ccc(C(F)(F)F)nc1S(=O)(=O)NC(=O)Nc1nc(OC)cc(OC)n1 [Flupyrsulfuron-methyl-sodium] | 0.79 |
| COC(=O)c1ccccc1S(=O)(=O)NC(=O)Nc1nc(C)nc(OC)n1 [Metsulfuron-methyl] | 0.17 |

Tested on: AHAS-inhibitor tolerant WOSR line
Experiment: Plot pre-emergence crop tolerance (PHYTOX), Example 4, tolerant line
Type: in vivo, Brassica napus
Settings: 10 DAT, crop GS 10/11, AI rate g/ha: propoxycarbazone 7, sulfosulfuron 2, flupyrsulfuron-methyl 1.8, amidosulfuron 2.75
Protocol: (§6) Plants of an AHAS-inhibitor tolerant WOSR line and plants of an AHAS-inhibitor susceptible WOSR line are sown side by side in a plot. A pre-emergence treatment of herbicides is applied to the plants by means of fine distributed nozzles. There are four replications of each treatment.
as §2

| Compound | PHYTOX % [%] |
| --- | --- |
| CCS(=O)(=O)c1nc2ccccn2c1S(=O)(=O)NC(=O)Nc1nc(OC)cc(OC)n1 [Sulfosulfuron] | 0 |
| CCCOc1nn(C(=O)[N-]S(=O)(=O)c2ccccc2C(=O)OC)c(=O)n1C.[Na+] [Propoxycarbazone] | 0 |
| COc1cc(OC)nc(NC(=O)NS(=O)(=O)N(C)S(C)(=O)=O)n1 [Amidosulfuron] | 0 |
| COC(=O)c1ccc(C(F)(F)F)nc1S(=O)(=O)NC(=O)Nc1nc(OC)cc(OC)n1 [Flupyrsulfuron-methyl] | 0 |

Same assay, conditions: 29 DAT, crop GS 11/13, AI rate g/ha: propoxycarbazone 7, sulfosulfuron 2, flupyrsulfuron-methyl 1.8, amidosulfuron 2.75

| Compound | PHYTOX % [%] |
| --- | --- |
| CCS(=O)(=O)c1nc2ccccn2c1S(=O)(=O)NC(=O)Nc1nc(OC)cc(OC)n1 [Sulfosulfuron] | 0 |
| CCCOc1nn(C(=O)[N-]S(=O)(=O)c2ccccc2C(=O)OC)c(=O)n1C.[Na+] [Propoxycarbazone] | 0 |
| COc1cc(OC)nc(NC(=O)NS(=O)(=O)N(C)S(C)(=O)=O)n1 [Amidosulfuron] | 0 |
| COC(=O)c1ccc(C(F)(F)F)nc1S(=O)(=O)NC(=O)Nc1nc(OC)cc(OC)n1 [Flupyrsulfuron-methyl] | 0 |

Tested on: first AHAS-inhibitor susceptible WOSR line
Experiment: Greenhouse post-emergence herbicide crop damage, Example 1, susceptible line
Type: in vivo, Brassica napus
Settings: post-emergence at GS/BBCH 12, assessed 21-22 DAT
Protocol: (§7) Each pot is planted with two plants, the plants are watered from beneath and fertilized according there requirement. The pots are stored side by side in a greenhouse at 12° C. at the emergence phase. The temperature increases to 15-20° C. three weeks after sowing.
(§8) A post-emergence treatment of herbicides is applied to the plants by means of fine distributed nozzles and a water use rate of 200 L/ha at the growth stage GS/BBCH 12 (2 true leaf stage). The herbicides are tested at different rates. Five cultivar replicates are carried out per rate.
as §5, with “21-22” for “19”

| Compound | ED50 (crop damage, scale 0 to 100% vs untreated control) [g/ai/ha] |
| --- | --- |
| COc1nc(NC(=O)NS(=O)(=O)c2ccccc2C(F)(F)F)nc(C(F)(F)F)n1 [Tritosulfuron] | 0.39 |
| CCS(=O)(=O)c1nc2ccccn2c1S(=O)(=O)NC(=O)Nc1nc(OC)cc(OC)n1 [Sulfosulfuron] | 1.70 |
| COC(=O)c1ccccc1S(=O)(=O)NC(=O)N(C)c1nc(C)nc(OC)n1 [Tribenuron-methyl] | 2.59 |
| COc1nc(C)nc(NC(=O)NS(=O)(=O)c2ccccc2Cl)n1 [Chlorsulfuron] | 0.42 |
| COc1ncc(F)c2nc(S(=O)(=O)Nc3c(F)cccc3F)nn12 [Florasulam] | 1.51 |
| CCCOc1nn(C(=O)[N-]S(=O)(=O)c2ccccc2C(=O)OC)c(=O)n1C.[Na+] [Propoxycarbazone-sodium] | 2.16 |
| Trisulfuron-methyl [Trisulfuron-methyl 500] | 3.36 |
| COC(=O)c1ccc(C(F)(F)F)nc1S(=O)(=O)NC(=O)Nc1nc(OC)cc(OC)n1 [Flupyrsulfuron-methyl-sodium] | 0.58 |
| COC(=O)c1ccccc1S(=O)(=O)NC(=O)Nc1nc(C)nc(OC)n1 [Metsulfuron-methyl] | 0.57 |

Tested on: AHAS-inhibitor susceptible WOSR line
Experiment: Plot pre-emergence crop tolerance (PHYTOX), Example 4, susceptible line
Type: in vivo, Brassica napus
Settings: 10 DAT, crop GS 10/11, AI rate g/ha: propoxycarbazone 7, sulfosulfuron 2, flupyrsulfuron-methyl 1.8, amidosulfuron 2.75
Protocol: as §6, §2

| Compound | PHYTOX % [%] |
| --- | --- |
| CCS(=O)(=O)c1nc2ccccn2c1S(=O)(=O)NC(=O)Nc1nc(OC)cc(OC)n1 [Sulfosulfuron] | 99 |
| CCCOc1nn(C(=O)[N-]S(=O)(=O)c2ccccc2C(=O)OC)c(=O)n1C.[Na+] [Propoxycarbazone] | 100 |
| COc1cc(OC)nc(NC(=O)NS(=O)(=O)N(C)S(C)(=O)=O)n1 [Amidosulfuron] | 100 |
| COC(=O)c1ccc(C(F)(F)F)nc1S(=O)(=O)NC(=O)Nc1nc(OC)cc(OC)n1 [Flupyrsulfuron-methyl] | 100 |

Same assay, conditions: 29 DAT, crop GS 11/13, AI rate g/ha: propoxycarbazone 7, sulfosulfuron 2, flupyrsulfuron-methyl 1.8, amidosulfuron 2.75

| Compound | PHYTOX % [%] |
| --- | --- |
| CCS(=O)(=O)c1nc2ccccn2c1S(=O)(=O)NC(=O)Nc1nc(OC)cc(OC)n1 [Sulfosulfuron] | 99 |
| CCCOc1nn(C(=O)[N-]S(=O)(=O)c2ccccc2C(=O)OC)c(=O)n1C.[Na+] [Propoxycarbazone] | 100 |
| COc1cc(OC)nc(NC(=O)NS(=O)(=O)N(C)S(C)(=O)=O)n1 [Amidosulfuron] | 100 |
| COC(=O)c1ccc(C(F)(F)F)nc1S(=O)(=O)NC(=O)Nc1nc(OC)cc(OC)n1 [Flupyrsulfuron-methyl] | 100 |

Tested on: AHAS-tolerant SOSR line
Experiment: Plot post-emergence crop tolerance (PHYTOX), Example 3, SOSR
Type: in vivo, Brassica napus
Settings: post-emergence at GS 12/13, 15 DAT, crop GS 13/14, AI rate g/ha: flupyrsulfuron-methyl-sodium 5, thifensulfuron-methyl 15, tritosulfuron 25, tribenuron-methyl 15
Protocol: as §1, §2

| Compound | PHYTOX % [%] |
| --- | --- |
| COc1nc(NC(=O)NS(=O)(=O)c2ccccc2C(F)(F)F)nc(C(F)(F)F)n1 [Tritosulfuron] | 53 |
| COC(=O)c1ccccc1S(=O)(=O)NC(=O)N(C)c1nc(C)nc(OC)n1 [Tribenuron-methyl] | 25 |
| COC(=O)c1ccc(C(F)(F)F)nc1S(=O)(=O)NC(=O)Nc1nc(OC)cc(OC)n1 [Flupyrsulfuron-methyl-sodium] | 19 |
| COC(=O)c1sccc1S(=O)(=O)NC(=O)Nc1nc(C)nc(OC)n1 [Thifensulfuron-methyl] | 23 |

Tested on: AHAS-inhibitor tolerant WOSR line
Experiment: Greenhouse post-emergence herbicide crop damage, Example 1, tolerant line
Type: in vivo, Brassica napus
Settings: post-emergence at GS/BBCH 12, assessed 21-22 DAT
Protocol: as §7, §8
as §5, with “21-22” for “19”

| Compound | ED50 (crop damage, scale 0 to 100% vs untreated control) [g/ai/ha] |
| --- | --- |
| COc1nc(NC(=O)NS(=O)(=O)c2ccccc2C(F)(F)F)nc(C(F)(F)F)n1 [Tritosulfuron] | 42.30 |
| CCS(=O)(=O)c1nc2ccccn2c1S(=O)(=O)NC(=O)Nc1nc(OC)cc(OC)n1 [Sulfosulfuron] | 2417.06 |
| COC(=O)c1ccccc1S(=O)(=O)NC(=O)N(C)c1nc(C)nc(OC)n1 [Tribenuron-methyl] | 25.88 |
| COc1nc(C)nc(NC(=O)NS(=O)(=O)c2ccccc2Cl)n1 [Chlorsulfuron] | 2.8 |
| COc1ncc(F)c2nc(S(=O)(=O)Nc3c(F)cccc3F)nn12 [Florasulam] | 6.53 |
| CCCOc1nn(C(=O)[N-]S(=O)(=O)c2ccccc2C(=O)OC)c(=O)n1C.[Na+] [Propoxycarbazone-sodium] | 67.43 |
| Trisulfuron-methyl [Trisulfuron-methyl 500] | 41.81 |
| COC(=O)c1ccc(C(F)(F)F)nc1S(=O)(=O)NC(=O)Nc1nc(OC)cc(OC)n1 [Flupyrsulfuron-methyl-sodium] | 63316.17 |
| COC(=O)c1ccccc1S(=O)(=O)NC(=O)Nc1nc(C)nc(OC)n1 [Metsulfuron-methyl] | 5.06 |

Tested on: AHAS-inhibitor tolerant WOSR line
Experiment: Greenhouse post-emergence herbicide crop damage, Example 2, tolerant line
Type: in vivo, Brassica napus
Settings: post-emergence at GS/BBCH 10, assessed 19 DAT
Protocol: as §3, §4, §5

| Compound | ED50 (crop damage, scale 0 to 100% vs untreated control) [g/ai/ha] |
| --- | --- |
| COc1nc(NC(=O)NS(=O)(=O)c2ccccc2C(F)(F)F)nc(C(F)(F)F)n1 [Tritosulfuron] | 2.96 |
| CCS(=O)(=O)c1nc2ccccn2c1S(=O)(=O)NC(=O)Nc1nc(OC)cc(OC)n1 [Sulfosulfuron] | 3.29 |
| COC(=O)c1ccccc1S(=O)(=O)NC(=O)N(C)c1nc(C)nc(OC)n1 [Tribenuron-methyl] | 9.11 |
| COc1nc(C)nc(NC(=O)NS(=O)(=O)c2ccccc2Cl)n1 [Chlorsulfuron] | 11.2 |
| COc1ncc(F)c2nc(S(=O)(=O)Nc3c(F)cccc3F)nn12 [Florasulam] | 4.9 |
| CCCOc1nn(C(=O)[N-]S(=O)(=O)c2ccccc2C(=O)OC)c(=O)n1C.[Na+] [Propoxycarbazone-sodium] | 42.07 |
| Trisulfuron-methyl [Trisulfuron-methyl 500] | 4.48 |
| COC(=O)c1ccc(C(F)(F)F)nc1S(=O)(=O)NC(=O)Nc1nc(OC)cc(OC)n1 [Flupyrsulfuron-methyl-sodium] | 147.97 |
| COC(=O)c1ccccc1S(=O)(=O)NC(=O)Nc1nc(C)nc(OC)n1 [Metsulfuron-methyl] | 2.28 |
